Each structure is given as a SMILES string. Values after ≈ are worked out from the molar mass of the structure shown. Active and inactive are the calls of the source. The rule behind the calls is not given here.

The test system of one series is CWR22R. Nature of the series: Antiproliferative activity against human 22Rv1 cells assessed as reduction in cell viability incubated for 72 hrs by SRB assay. The format is functional, cell-based. Particulars: 22Rv1, 72 h. (Sulforhodamine B stains cellular protein and so reports cell mass.)
For series [1], the target named is T1, Cyclin-dependent kinase 9 (Homo sapiens, UniProt P50750). The series can be described thus: Inhibition of CDK9 (unknown origin) in presence of ATP by ADP-Glo kinase assay. A general note: ADP-Glo first removes unused ATP, then detects ADP through luciferase.
T1 sequence (P50750 whole entry): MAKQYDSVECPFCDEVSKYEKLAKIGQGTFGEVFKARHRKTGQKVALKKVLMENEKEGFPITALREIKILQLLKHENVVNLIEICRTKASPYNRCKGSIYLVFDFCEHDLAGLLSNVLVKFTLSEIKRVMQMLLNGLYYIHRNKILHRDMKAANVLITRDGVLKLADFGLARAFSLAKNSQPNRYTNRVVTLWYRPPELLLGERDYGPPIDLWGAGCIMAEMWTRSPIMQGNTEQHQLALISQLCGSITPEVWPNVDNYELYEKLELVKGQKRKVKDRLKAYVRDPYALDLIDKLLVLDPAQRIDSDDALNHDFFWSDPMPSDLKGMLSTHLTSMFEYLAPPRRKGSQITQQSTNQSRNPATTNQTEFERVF
Series [2] deals with T2, Protein cereblon/Cyclin-dependent kinase 9 (Homo sapiens, UniProt P50750+Q96SW2). Nature of the series: PROTAC activity at CRBN/CDK9 in human 22Rv1 cells assessed as reduction in cyclin T1 expression at 1.5 uM incubated for 24 hrs by Western blotting analysis. Type of series: cell-based.
T2 sequence (P50750 whole entry, looked up): as the sequence (P50750 whole entry) above
T2 sequence (Q96SW2 whole entry, looked up): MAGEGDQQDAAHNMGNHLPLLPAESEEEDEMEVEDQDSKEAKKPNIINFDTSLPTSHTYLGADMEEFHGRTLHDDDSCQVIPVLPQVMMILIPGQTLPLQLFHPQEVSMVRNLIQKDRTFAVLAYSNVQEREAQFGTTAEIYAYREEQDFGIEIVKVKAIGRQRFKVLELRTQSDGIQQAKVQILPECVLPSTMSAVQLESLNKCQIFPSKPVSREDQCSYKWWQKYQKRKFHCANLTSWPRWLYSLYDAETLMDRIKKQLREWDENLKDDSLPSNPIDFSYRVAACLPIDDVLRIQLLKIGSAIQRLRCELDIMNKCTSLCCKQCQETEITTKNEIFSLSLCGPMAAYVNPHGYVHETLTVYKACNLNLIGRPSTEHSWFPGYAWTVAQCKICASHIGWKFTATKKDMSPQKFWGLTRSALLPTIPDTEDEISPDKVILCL
The target in series [3] is T1, Cyclin-dependent kinase 9. Nature of the series: Inhibition of CDK9 (unknown origin) at 20 nM in presence of ATP by ADP-Glo kinase assay relative to control.
The nature of series [4]: Solubility of the compound in water at pH 7.4 by shake flask method. The format is physicochemical.
Series [5] deals with T2, Protein cereblon/Cyclin-dependent kinase 9. The series can be described thus: PROTAC activity at CRBN/CDK9 in human 22Rv1 cells assessed as degradation of CDK9 protein at 20 nM incubated for 12 hrs by Western blotting analysis relative to control. Type of series: cell-based. (In general: In western blotting, separated proteins are transferred to a membrane and probed.)
A short description of series [6]: Solubility of the compound in water at pH 6.0 by shake flask method. Type of series: physicochemical.
For series [7], the target named is T2, Protein cereblon/Cyclin-dependent kinase 9. The series can be described thus: PROTAC activity at CRBN/CDK9 in human 22Rv1 cells assessed as degradation of CDK9 protein at 100 nM incubated for 12 hrs by Western blotting analysis. The format is cell-based.
Series [8] has the same target. The series can be described thus: PROTAC activity at CRBN/CDK9 in human 22Rv1 cells assessed as degradation of CDK9 protein at 100 nM incubated for 12 hrs by Western blotting analysis relative to control. Type of series: cell-based.

With `CN1CC[C@H](c2c(O)cc(O)c3c(=O)cc(-c4ccccc4Cl)oc23)[C@H](O)C1` [ALVOCIDIB], the IC50 in the series with CWR22R was 240 nM.

On to `COc1cc(O)c2c(=O)cc(-c3ccc(N4CCN(C)CC4)cc3)oc2c1C1=CCN(C)CC1`, for which the IC50 with CWR22R is 1250 nM; in series [1] it was 66.7 nM. The result in series [2] was inactive. In addition, the inhibition in series [3] stood at 69.2%.

For `COc1cc(O)c2c(=O)cc(-c3ccc(N4CCN(C(=O)C5CCN(c6ccc7c(c6)C(=O)N(C6CCC(=O)NC6=O)C7=O)CC5)CC4)cc3)oc2c1C1=CCN(C)CC1` (stereo unspecified), the solubility (thermodynamic) in series [4] was 21 µg/mL (≈ 25.8 µM); in series [6], < 10 µg/mL. For the same compound, the IC50 with CWR22R is 20 nM. Further, the Activity in [5] was > 50%. The inhibition in [3] is 90.4%.

On to `COc1cc(O)c2c(=O)cc(-c3ccc(N4CCN(C(=O)CCCCCOc5cccc6c5C(=O)N(C5CCC(=O)NC5=O)C6=O)CC4)cc3)oc2c1C1=CCN(C)CC1` (stereo unspecified), for which the thermodynamic solubility in series [4] and in [6] was < 10 µg/mL throughout. Also, in the series on CWR22R, the IC50 worked out at 650 nM. Moreover, the inhibition in series [3] stood at 69.9%.

With `COc1cc(O)c2c(=O)cc(-c3ccc(N4CCN(C(=O)CCCOc5cccc6c5C(=O)N(C5CCC(=O)NC5=O)C6=O)CC4)cc3)oc2c1C1=CCN(C)CC1` (stereo unspecified), the solubility (thermodynamic) in series [4] and in [6] was < 10 µg/mL in each case. Also, in the series with CWR22R, the IC50 is 410 nM. Besides, in series [7], the result was Active. Further, the inhibition in [3] amounted to 79%.

Consider `COc1cc(O)c2c(=O)cc(-c3ccc(N4CCN(C(=O)CCCCOc5cccc6c5C(=O)N(C5CCC(=O)NC5=O)C6=O)CC4)cc3)oc2c1C1=CCN(C)CC1` (stereo unspecified), for which the solubility (thermodynamic) in series [4] and in [6] was < 10 µg/mL each time. Moreover, the IC50 in the series with CWR22R came to 860 nM. For the same compound, the outcome in series [7] was Active. Further, in [3], the inhibition was 74.2%.

In the case of `COc1cc(O)c2c(=O)cc(-c3ccc(N4CCN(C(=O)CNc5cccc6c5C(=O)N(C5CCC(=O)NC5=O)C6=O)CC4)cc3)oc2c1C1=CCN(C)CC1` (stereo unspecified), the values for the thermodynamic solubility in series [4] and in [6] were 21 µg/mL (≈ 27.6 µM) and < 10 µg/mL, respectively. In addition, the half-maximal inhibitory concentration (IC50) in the series with CWR22R was determined as 100 nM. In addition, the Activity in series [8] was 80%. For the same compound, in [3], the inhibition stood at 84.1%.

As to `COc1cc(O)c2c(=O)cc(-c3ccc(N4CCN(CCC5CCN(c6ccc7c(c6)C(=O)N(C6CCC(=O)NC6=O)C7=O)CC5)CC4)cc3)oc2c1C1=CCN(C)CC1` (stereo unspecified), the solubility (thermodynamic) was 45 µg/mL (≈ 55.2 µM) in series [4] and 117 µg/mL (≈ 144 µM) in series [6]. Besides, the 50% inhibitory concentration (IC50) in the series with CWR22R was determined as 350 nM. The inhibition in [3] was 75%.

Take `COc1cc(O)c2c(=O)cc(-c3ccc(N4CCN(CC5CCN(c6cccc7c6C(=O)N(C6CCC(=O)NC6=O)C7=O)CC5)CC4)cc3)oc2c1C1=CCN(C)CC1` (stereo unspecified): the thermodynamic solubility in series [4] is 41 µg/mL (≈ 51.2 µM); in series [6], 193 µg/mL (≈ 241 µM). Also, in the series with CWR22R, the IC50 was determined as 70 nM. Moreover, the inhibition in [3] was 89.3%.

In the case of `COc1cc(O)c2c(=O)cc(-c3ccc(N4CCN(C(=O)CCCCCCCCCOc5cccc6c5C(=O)N(C5CCC(=O)NC5=O)C6=O)CC4)cc3)oc2c1C1=CCN(C)CC1` (stereo unspecified), the solubility (thermodynamic) in series [4] and in series [6] was < 10 µg/mL in each case. For the same compound, the IC50 with CWR22R was 120 nM. In series [7], the result was Active. In addition, the inhibition in series [3] amounted to 34.2%.

In the case of `COc1cc(O)c2c(=O)cc(-c3ccc(N4CCN(C(=O)CCCCCCCOc5cccc6c5C(=O)N(C5CCC(=O)NC5=O)C6=O)CC4)cc3)oc2c1C1=CCN(C)CC1` (stereo unspecified), the thermodynamic solubility in series [4] and in [6] was < 10 µg/mL in each case. Further, in the series on CWR22R, the IC50 came to 1810 nM. Further, the inhibition in [3] is 69.5%.

The term IC50 denotes the midpoint of a concentration-inhibition curve. In general, inhibition refers to the relative decrease from the control value, in per cent. The term solubility (thermodynamic) denotes the concentration in solution at equilibrium with solid.

Source of the values: ChEMBL document CHEMBL5625250, “Discovery of novel flavonoid-based CDK9 degraders for prostate cancer treatment via a PROTAC strategy” (Eur J Med Chem, 2023).
